Measurements as given in US6576668B1, “Remedies for arthrosis deformans” (Santen Pharmaceutical Co., Ltd., priority 1999, dated 2003).

Assays:
[1] = tested on: degradation of proteoglycan in chondrocytes; experiment: Degradation of proteoglycan in IL-1β-treated chondrocytes (GAG concentration in supernatant); type: cell-based; conditions: Oryctolagus cuniculus, Chondrocyte, 48 h, rabbit chondrocytes, IL-1β 1 ng/ml, two days culture, average of three samples, read-out: Degradation inhibition rate (%) (proteoglycan)
Description: In order to study utility of the present compound, actions of the present compound on MMP-3 production and degradation of proteoglycan after IL-1β treatment were studied by using chondrocytes separated from femurs of rabbit knee joints according to the report of Nose et al. (J. Rheumatology, 24, 550-554 (1997)). The action on MMP-3 production was studied by measuring MMP-3 activity. The action on degradation of proteoglycan was studied by measuring glycosaminoglycan (GAG) being a degradation product of proteoglycan. Femurs of knee joints of male Japanese white rabbits were enucleated. Surface cartilage of the femur was sliced into small pieces, and then tissues were dissociated by enzyme treatment to prepare chondrocytes. A mammal cell culture basal medium D-MEM (Dulbecco's Modified Eagle Medium, produced by Gibco Co., Ltd.) containing β-ketoglutaric acid (5 μg/ml), L-ascorbic acid (50 μg/ml), lactoalbumin hydrolyzate (0.2 mg/ml), penicillin (100 U/ml) and streptomycin (100 μg/ml) (hereinafter referred to as “medium A”) was prepared. […] A GAG concentration in the supernatant was measured according to the method of Farndale et al. (Biochim. Biophys. Acta, 883, 173-177 (1986)). […]

[2] = tested on: mobility of knee joint, rabbit-immobilized models; experiment: Improvement effect on mobility of knee joint in rabbit-immobilized models; type: in vivo, NZW rabbits; conditions: for Mobility of knee joint (degree): measured on 29th day, control 42, average of ten samples
Description: In order to study in vivo effects of the present compound on osteoarthritis, an improvement effect on a mobility of a knee joint was investigated by using rabbit-immobilized models. A test compound was suspended in a 1% aqueous methyl cellulose solution to prepare test compound solutions having desired concentrations. Knee joints of right hind paws of NZW rabbits (13 weeks old, body weight: 2.97 to 3.27 kg) were fixed in an extended position with plaster bandages under sodium pentobarbital (25 mg/kg) anesthesia. Administering orally the test compound (amount of liquid to be administered: 10 ml/kg) to the rabbits for four weeks, the rabbits were sacrificed by exsanguination on the 29th day, and then mobilities of the knee joints were measured. A similar experiment was carried out by using a 1% aqueous methyl cellulose solution (10 ml/kg) as a control instead of the test compound. The mobility of the knee joint was determined from a difference between a maximum flection angle obtained when a paw joint of the rabbit was vertically loaded with a load of 400 g and a maximum extension angle.

[3] = tested on: MMP-3 production of chondrocytes; experiment: MMP-3 production of IL-1β-treated chondrocytes (MMP-3 activity in culture supernatant); type: cell-based; conditions: Oryctolagus cuniculus, Chondrocyte, 48 h, rabbit chondrocytes, IL-1β 1 ng/ml, two days culture, average of three samples, read-out: Production inhibition rate (%) (MMP-3)
Description: In order to study utility of the present compound, actions of the present compound on MMP-3 production and degradation of proteoglycan after IL-1β treatment were studied by using chondrocytes separated from femurs of rabbit knee joints according to the report of Nose et al. (J. Rheumatology, 24, 550-554 (1997)). The action on MMP-3 production was studied by measuring MMP-3 activity. The action on degradation of proteoglycan was studied by measuring glycosaminoglycan (GAG) being a degradation product of proteoglycan. Femurs of knee joints of male Japanese white rabbits were enucleated. Surface cartilage of the femur was sliced into small pieces, and then tissues were dissociated by enzyme treatment to prepare chondrocytes. A mammal cell culture basal medium D-MEM (Dulbecco's Modified Eagle Medium, produced by Gibco Co., Ltd.) containing β-ketoglutaric acid (5 μg/ml), L-ascorbic acid (50 μg/ml), lactoalbumin hydrolyzate (0.2 mg/ml), penicillin (100 U/ml) and streptomycin (100 μg/ml) (hereinafter referred to as “medium A”) was prepared. […] A culture supernatant was collected, and MMP-3 activity in the supernatant was measured with MMP-3 assay Kit (produced by Yagai Co., Ltd.). […]

`CC(C)(S)C(=O)N[C@@H](CS)C(=O)O` [Bucillamine, bucillamine] was tested, and the inhibition at 3 µM [1] was 19%, the “Mobility of knee joint (degree)” value ([2]; 10 mg/kg orally for four weeks) was 46 degree and the “Mobility of knee joint (degree)” value ([2]; 30 mg/kg orally for four weeks) was 48 degree. The “Mobility of knee joint (degree)” value ([2]; 100 mg/kg orally for four weeks) was 53 degree, the “Effect on mobility of the rabbit knee joint (in words)” value ([2]; 10 to 100 mg/kg orally for four weeks) was “improves the mobility of the rabbit knee joint dose-dependently” and the inhibition at 3 µM [3] was 28%.
